pIC50: −log10 of the molar value. Structures can show the parent of a compound that is named as a salt.

What is called melting point is the temperature of the solid-liquid transition. In general, pIC50 refers to the IC50 on a negative log10 scale, so that one unit is a factor of ten. Read a high pIC50 as a small IC50. Broadly, the inhibition is how much of the control response was suppressed. Low readings indicate a response near the control, high ones a response far below the control.

The target in one data set is T1, IκB kinase (Homo sapiens, UniProt O14920+O15111).
T1 construct: The kinase was purified from HeLa cell extracts; endogenous in cells; host or cells: HeLa cell extracts
Nature of the data set: IκB kinase filter test. The conditions noted are these: kinase purified from HeLa cell extracts; 50 μM ATP; substrate peptide 20 μM. It is filed as biochemical.

In data set [1] the target is T2, cAMP-dependent protein kinase (PKA) (Homo sapiens, UniProt P17612).
T2 construct: purchased Upstate Biotechnology
Put plainly: PKA kinase test (Upstate Biotechnology kit). The conditions noted are these: substance concentration of 100 μM; ATP 50 μM. Format: biochemical. As to the method:
(§1) cAMP-dependent protein kinase (PKA), protein kinase C (PKC), and casein kinase II (CK II) were determined using the appropriate test kits of Upstate Biotechnology according to the procedure of the manufacturer at an ATP concentration of 50 μM. Differently, no phosphocellulose filter, but MultiScreen plates (Millipore; phosphocellulose MS-PH, cat. MAPHNOB10) with the corresponding aspiration system were used. The plates or membranes (IκB kinase) were then measured in a Wallac Microβeta scintillation counter. 100 μM of the test substance were employed in each case.
(§2) Each substance was tested in a duplicate determination. The mean value of the blank (without enzyme) is subtracted from the mean values (enzyme with and without substances) and the % inhibition is calculated. IC50 calculations were carried out using the software package GraFit 3.0.

Another data set deals with protein kinase C (PKC). Nature of the data set: PKC kinase test (Upstate Biotechnology kit). The conditions noted are these: substance concentration of 100 μM; ATP 50 μM. It is filed as biochemical. As to the method: as §1, §2
In the next data set the target is T3, casein kinase II (CK II) (Homo sapiens, UniProt P68400).
T3 construct: purchased Upstate Biotechnology
Put plainly: CK II kinase test (Upstate Biotechnology kit). It is filed as biochemical. The conditions noted are these: substance concentration of 100 μM; ATP 50 μM. As for the experimental part:
as §1, §2

T1 sequence (O14920 whole entry): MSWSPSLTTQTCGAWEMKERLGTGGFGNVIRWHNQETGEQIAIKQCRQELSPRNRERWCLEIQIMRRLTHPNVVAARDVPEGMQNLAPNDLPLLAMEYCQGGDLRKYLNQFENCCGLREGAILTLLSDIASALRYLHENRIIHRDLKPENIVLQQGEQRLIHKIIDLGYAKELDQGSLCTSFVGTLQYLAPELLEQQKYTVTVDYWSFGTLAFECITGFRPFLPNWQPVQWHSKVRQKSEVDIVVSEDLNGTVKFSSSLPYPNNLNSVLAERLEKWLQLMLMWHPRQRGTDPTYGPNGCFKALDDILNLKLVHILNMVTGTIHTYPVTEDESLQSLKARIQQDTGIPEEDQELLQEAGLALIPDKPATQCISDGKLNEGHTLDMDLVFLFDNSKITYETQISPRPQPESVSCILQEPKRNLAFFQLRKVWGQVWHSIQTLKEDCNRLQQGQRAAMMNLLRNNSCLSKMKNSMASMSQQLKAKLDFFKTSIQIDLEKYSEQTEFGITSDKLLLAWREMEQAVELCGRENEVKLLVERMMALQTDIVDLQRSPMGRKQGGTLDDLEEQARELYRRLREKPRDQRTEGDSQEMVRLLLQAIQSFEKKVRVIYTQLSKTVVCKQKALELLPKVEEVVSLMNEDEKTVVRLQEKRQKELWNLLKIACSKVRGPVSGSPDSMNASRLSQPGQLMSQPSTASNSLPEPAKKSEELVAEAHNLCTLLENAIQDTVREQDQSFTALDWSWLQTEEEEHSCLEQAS
T1 sequence (O15111 whole entry): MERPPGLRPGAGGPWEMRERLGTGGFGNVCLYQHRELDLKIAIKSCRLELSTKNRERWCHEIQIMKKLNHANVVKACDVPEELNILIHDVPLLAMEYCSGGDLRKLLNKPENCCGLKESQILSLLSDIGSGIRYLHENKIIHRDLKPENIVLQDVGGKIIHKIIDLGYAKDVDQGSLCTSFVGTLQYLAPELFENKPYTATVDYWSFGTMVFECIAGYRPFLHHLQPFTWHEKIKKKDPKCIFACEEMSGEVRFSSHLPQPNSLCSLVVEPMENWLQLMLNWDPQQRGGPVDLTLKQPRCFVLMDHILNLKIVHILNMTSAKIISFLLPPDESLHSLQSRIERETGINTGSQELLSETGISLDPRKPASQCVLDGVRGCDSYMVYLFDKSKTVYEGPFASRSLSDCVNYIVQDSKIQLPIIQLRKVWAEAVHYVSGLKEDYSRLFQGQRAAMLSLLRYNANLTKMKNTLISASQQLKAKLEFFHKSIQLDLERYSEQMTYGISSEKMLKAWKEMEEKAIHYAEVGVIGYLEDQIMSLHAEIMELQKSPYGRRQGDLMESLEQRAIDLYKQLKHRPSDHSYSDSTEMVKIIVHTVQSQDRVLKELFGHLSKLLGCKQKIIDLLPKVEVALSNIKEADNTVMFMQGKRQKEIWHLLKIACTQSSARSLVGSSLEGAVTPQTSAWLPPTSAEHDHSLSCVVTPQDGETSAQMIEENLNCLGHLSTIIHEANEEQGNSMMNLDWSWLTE
T1 sequence (Q9Y6K9 whole entry partner): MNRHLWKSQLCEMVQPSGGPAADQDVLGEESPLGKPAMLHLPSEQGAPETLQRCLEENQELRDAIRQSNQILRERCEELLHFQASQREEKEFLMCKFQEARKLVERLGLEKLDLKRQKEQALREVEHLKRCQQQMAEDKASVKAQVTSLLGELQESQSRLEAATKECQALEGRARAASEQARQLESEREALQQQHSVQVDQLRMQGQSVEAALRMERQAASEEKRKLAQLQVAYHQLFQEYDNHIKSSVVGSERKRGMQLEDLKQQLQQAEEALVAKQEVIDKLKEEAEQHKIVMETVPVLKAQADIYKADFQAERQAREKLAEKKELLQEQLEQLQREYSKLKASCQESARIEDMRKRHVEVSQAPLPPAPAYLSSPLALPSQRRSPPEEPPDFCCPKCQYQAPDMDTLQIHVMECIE
T3 sequence (P68400 whole entry): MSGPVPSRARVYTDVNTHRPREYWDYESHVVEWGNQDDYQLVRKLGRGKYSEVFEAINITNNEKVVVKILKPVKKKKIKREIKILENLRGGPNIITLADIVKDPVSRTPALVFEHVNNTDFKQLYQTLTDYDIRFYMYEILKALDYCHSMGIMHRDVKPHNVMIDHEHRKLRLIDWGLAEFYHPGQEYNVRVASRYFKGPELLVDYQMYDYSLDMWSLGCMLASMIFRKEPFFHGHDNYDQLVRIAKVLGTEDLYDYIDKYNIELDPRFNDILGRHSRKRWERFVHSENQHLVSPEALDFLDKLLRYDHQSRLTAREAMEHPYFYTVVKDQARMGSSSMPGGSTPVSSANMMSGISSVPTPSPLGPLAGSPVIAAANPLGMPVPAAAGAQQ
T3 sequence (P67870 whole entry partner): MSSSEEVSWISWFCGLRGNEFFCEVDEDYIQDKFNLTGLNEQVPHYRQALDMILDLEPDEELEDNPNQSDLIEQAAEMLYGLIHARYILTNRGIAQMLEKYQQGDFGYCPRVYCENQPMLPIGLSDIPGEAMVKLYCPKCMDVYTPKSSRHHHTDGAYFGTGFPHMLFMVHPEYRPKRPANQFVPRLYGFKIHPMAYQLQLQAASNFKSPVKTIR

Take `CCN(C[C@H](NC(=O)c1ccc2[nH]c(-c3ccncc3)nc2c1)C(=O)O)c1ccccc1` (as salt: trifluoroacetate) [Example 195, 3-Phenylaminoethyl-2-[(2-pyridin-4-yl-1H-benzimidazole-5-carbonyl)-amino]propionic acid trifluoroacetate]: the melting point was ~ 258 °C (dec.).

As for `O=C(N[C@@H](Cc1ccc(F)cc1F)C(=O)O)c1ccc2nc(-c3ccncc3)[nH]c2c1` [Example 5], on IκB kinase, the pIC50 was 4.60. The inhibition at 100 µM in data set [1] was determined as 0%; against casein kinase II (CK II), 19%. This molecule yielded a PKC % inhibition in the data set on protein kinase C (PKC) of 16%.

For the molecule `O=C(N[C@H](Cc1ccc(Cl)cc1)C(=O)O)c1ccc2nc(-c3ccncc3)[nH]c2c1` [Example 6], the pIC50 against IκB kinase is 4.14. The values for the inhibition at 100 µM (in data set [1]; against casein kinase II (CK II)) were 0% and 14%, respectively. This molecule registered a PKC % inhibition in the data set on protein kinase C (PKC) of 46%.

Turning to `O=C(N[C@@H](Cc1ccc(F)cc1)C(=O)O)c1ccc2nc(-c3ccncc3)[nH]c2c1` [Example 7], the pIC50 at IκB kinase was 4.66. Also, the inhibition at 100 µM in data set [1] was 0%; against casein kinase II (CK II), 10%. The molecule further showed a PKC % inhibition in the data set with protein kinase C (PKC) of 15%.

On to `NC(=O)[C@H](Cc1cccc(C(F)(F)F)c1)NC(=O)c1ccc2nc(-c3ccncc3)[nH]c2c1` [Example 8], for which the pIC50 against IκB kinase is 5.40. The inhibition at 100 µM in data set [1] was 0%; at casein kinase II (CK II), 7%. Besides, the PKC % inhibition in the data set with protein kinase C (PKC) stood at 9%.

`NC(=O)[C@H](Cc1cccs1)NC(=O)c1ccc2nc(-c3ccncc3)[nH]c2c1` [Example 11] showed a pIC50 against IκB kinase of 5.15. Further, the inhibition at 100 µM (in data set [1]; on casein kinase II (CK II)) was 0% throughout. The molecule further registered a PKC % inhibition with protein kinase C (PKC) of 16%.

Consider `NC(=O)[C@H](Cc1cccnc1)NC(=O)c1ccc2nc(-c3ccncc3)[nH]c2c1` [Example 12], for which, on IκB kinase, the pIC50 is 4.38. The inhibition at 100 µM (in data set [1]; at casein kinase II (CK II)) was 0% throughout. The PKC % inhibition with protein kinase C (PKC) amounted to 16%.

The molecule `NC(=O)[C@H](Cc1ccc(C(=O)O)cc1)NC(=O)c1ccc2nc(-c3ccncc3)[nH]c2c1` [Example 14] had a pIC50 on IκB kinase of 5.15. The inhibition at 100 µM (in data set [1]; on casein kinase II (CK II)) was 0% throughout. This molecule also gave a PKC % inhibition with protein kinase C (PKC) of 0%.

`N#Cc1ccc(C[C@H](NC(=O)c2ccc3nc(-c4ccncc4)[nH]c3c2)C(N)=O)cc1` [Example 16] gave a negative-log IC50 (pIC50) at IκB kinase of 5.05. Also, the results for the inhibition at 100 µM (in data set [1]; against casein kinase II (CK II)) were 0% and 4%, respectively. In the data set on protein kinase C (PKC), this molecule came in with a PKC % inhibition of 11%.

Take `NC(=O)[C@H](Cc1ccc2ccccc2n1)NC(=O)c1ccc2nc(-c3ccncc3)[nH]c2c1` [Example 19]: on IκB kinase, the pIC50 is 6.00. Further, the inhibition at 100 µM in data set [1] was found to be 36%; at casein kinase II (CK II), 70%. Further, the PKC % inhibition in the data set with protein kinase C (PKC) amounted to 63%.

Turning to `NC(=O)[C@H](Cc1cc(Br)c(O)c(Br)c1)NC(=O)c1ccc2nc(-c3ccncc3)[nH]c2c1` [Example 20], the pIC50 on IκB kinase is 4.47. Further, the inhibition at 100 µM in data set [1] stood at 26%; on casein kinase II (CK II) it was 60%. In the data set on protein kinase C (PKC), this molecule gave a PKC % inhibition of 31%.

Take `NC(=O)[C@H](Cc1cccs1)NC(=O)c1cccc2nc(-c3ccncc3)[nH]c12` [Example 34]: the pIC50 on IκB kinase was 4.80.

For the molecule `NC(=O)[C@H](CC1CC1)NC(=O)c1cccc2nc(-c3ccncc3)[nH]c12` [Example 36], at IκB kinase, the pIC50 was 4.44.

For `CSCC[C@H](NC(=O)c1ccc2[nH]c(-c3ccncc3)nc2c1)C(N)=O` [Example 107], on IκB kinase, the pIC50 was 6.00. Further, the results for the inhibition at 100 µM (in data set [1]; at casein kinase II (CK II)) were 0% and 92%, respectively. In the data set on protein kinase C (PKC), this molecule yielded a PKC % inhibition of 13%.

In turn, `CC(C)(C)c1ccccc1SC[C@H](NC(=O)c1ccc2[nH]c(-c3ccncc3)nc2c1)C(=O)O` [Example 112] showed a pIC50 against IκB kinase of 4.60. Moreover, the inhibition at 100 µM in data set [1] amounted to 24%; on casein kinase II (CK II), 17%. For the same molecule, the PKC % inhibition with protein kinase C (PKC) came out at 7%.

Regarding `Nc1nnc([C@H](CCc2ccccc2)NC(=O)c2ccc3[nH]c(-c4ccncc4)nc3c2)o1` [Example 179, 2-pyridin4-yl-1H-benzimidazole-5-carboxylic acid [1-(5-amino-[1,3,4]oxadiazol-2-yl)-3-phenylpropyl]amide], the melting point is 160 °C (dec.). In addition, the pIC50 on IκB kinase is 6.37.

Turning to `O=C(N[C@@H](CCc1ccccc1)c1nnco1)c1ccc2[nH]c(-c3ccncc3)nc2c1` [Example 180, 2-pyridin-4-yl-1H-benzimidazole-5-carboxylic acid (1-[1,3,4]oxadiazol-2-yl-3-phenylpropyl)amide], the melting point was 103 °C (dec.). Further, the pIC50 against IκB kinase was 6.21.

`O=C(N[C@@H](CCc1ccccc1)c1nnc(NS(=O)(=O)c2ccccc2)o1)c1ccc2[nH]c(-c3ccncc3)nc2c1` [Example 191]: the melting point was 220 °C (dec.). Besides, on IκB kinase, the pIC50 is 6.92.

`CNC(=O)Nc1nnc([C@H](CCc2ccccc2)NC(=O)c2ccc3[nH]c(-c4ccncc4)nc3c2)o1` [Example 192, 2-pyridin-4-yl-1H-benzimidazole-5-carboxylic acid {1-[5-(3-methylureido)-[1,3,4]oxadiazol-2-yl]-3-phenylpropyl}amide] gave a pIC50 against IκB kinase of 6.44.

The record behind these values is patent US6358978B1, “Substituted benzimidazoles” (Aventis Pharma Deutschland GmbH, priority 1999, dated 2002).
